Measured values from ChEMBL document CHEMBL1136657, “Novel ether derivatives of mannopeptimycin glycopeptide antibiotic” (2003).
In brackets after ≈: the same amount, converted by molar mass.

Columns and labels:
Staphylococcus aureus [1] = experiment: Minimum inhibitory concentration against Staphylococcus aureus was determined; type: functional
Streptococcus = experiment: Minimum inhibitory concentration against Streptococcus species. was determined; type: functional
Enterococcus sp. = experiment: Minimum inhibitory concentration against Enterococcus species. was determined; type: functional
[2] = Minimum inhibitory concentration against SCN (GC 4548) was determined; type: functional
[3] = test system: Staphylococcus haemolyticus; experiment: Minimum inhibitory concentration against Staphylococcus haemolyticus (GC 4546) was determined
[4] = Minimum inhibitory concentration against SCN (GC 4551) was determined; type: functional
Bacillus cereus = experiment: Minimum inhibitory concentration against Bacillus cereus (GC 4561) was determined; type: functional
Pseudomonas aeruginosa = experiment: Minimum inhibitory concentration against Pseudomonas aeruginosa (GC 2214) control was determined; type: functional
Enterococcus faecalis [5] = experiment: Minimum inhibitory concentration against Enterococcus faecalis (GC 6189) was determined; type: functional
Staphylococcus aureus [6] = experiment: Minimum inhibitory concentration against Staphylococcus aureus (GC 3051) was determined; type: functional
Streptococcus pyogenes = experiment: Minimum inhibitory concentration against Streptococcus pyogenes (GC 4563) was determined; type: functional
Enterococcus faecalis [7] = experiment: Minimum inhibitory concentration against Enterococcus faecalis (GC 3059) was determined; type: functional
Staphylococcus aureus [8] = experiment: Minimum inhibitory concentration against Staphylococcus aureus (GC 4545) was determined; type: functional
Staphylococcus aureus [9] = experiment: Minimum inhibitory concentration against Staphylococcus aureus (GC 4541 was determined; type: functional
Escherichia coli [10] = experiment: Minimum inhibitory concentration against Escherichia coli (GC 2203) was determined; type: functional
Enterococcus faecalis [11] = experiment: Minimum inhibitory concentration against Enterococcus faecalis (GC 4553) was determined; type: functional
Enterococcus faecium [12] = experiment: Minimum inhibitory concentration against Enterococcus faecium (GC 4556) was determined; type: functional
Staphylococcus aureus [13] = experiment: Minimum inhibitory concentration against Staphylococcus aureus (GC 4543) was determined; type: functional
[14] = Minimum inhibitory concentration against SCN (GC 6257) was determined; type: functional
[15] = Minimum inhibitory concentration against SCN (GC 4547) was determined; type: functional
Candida albicans = experiment: Minimum inhibitory concentration against Candida albicans GC 3066 was determined; type: functional
Enterococcus faecalis [16] = experiment: Minimum inhibitory concentration against Enterococcus faecalis (GC 2691) was determined; type: functional
Streptococcus pneumoniae [17] = experiment: Minimum inhibitory concentration against Streptococcus pneumoniae (GC 4565) was determined; type: functional
Enterococcus faecalis [18] = experiment: Minimum inhibitory concentration against Enterococcus faecalis (GC 4554) was determined; type: functional
[19] = Minimum inhibitory concentration against SCN (GC 4549) was determined; type: functional
Streptococcus agalactiae = experiment: Minimum inhibitory concentration against Streptococcus agalactiae (GC4564) was determined; type: functional
Staphylococcus aureus [20] = experiment: Minimum inhibitory concentration against Staphylococcus aureus (GC 3066) was determined; type: functional
Escherichia coli [21] = experiment: Minimum inhibitory concentration against Escherichia coli (GC 4564) was determined; type: functional
Staphylococcus aureus [22] = experiment: Minimum inhibitory concentration against Staphylococcus aureus smith; type: functional
Micrococcus luteus = experiment: Minimum inhibitory concentration against Sarcina lutea (GC 4562) was determined; type: functional
Enterococcus faecalis [23] = experiment: Minimum inhibitory concentration against Enterococcus faecalis (GC 4555) was determined; type: functional
Mus musculus = experiment: In vivo activity against Staphylococcus aureus smith was determined after iv administration in mice; type: functional
Morganella morganii = experiment: Minimum inhibitory concentration against Morganella morganii (GC 4381) was determined; type: functional
Escherichia coli [24] = experiment: Minimum inhibitory concentration against Escherichia coli (GC 4560) was determined; type: functional
Staphylococcus aureus [25] = experiment: Minimum inhibitory concentration against Staphylococcus aureus (GC 4544) was determined; type: functional
Enterococcus faecium [26] = experiment: Minimum inhibitory concentration against Enterococcus faecium (GC 4557) was determined; type: functional
Enterococcus avium = experiment: Minimum inhibitory concentration against Enterococcus avium (GC 4558) was determined; type: functional
Staphylococcus aureus [27] = experiment: Minimum inhibitory concentration against Staphylococcus aureus (GC 2216) was determined; type: functional
Streptococcus pneumoniae [28] = experiment: Minimum inhibitory concentration against Streptococcus pneumoniae (GC 1894) was determined; type: functional
Enterococcus faecalis [29] = experiment: Minimum inhibitory concentration against Enterococcus faecalis (GC 4552) was determined; type: functional
Staphylococcus aureus [30] = experiment: Minimum inhibitory concentration against Staphylococcus aureus (GC 1131) was determined; type: functional
Staphylococcus aureus [31] = experiment: Minimum inhibitory concentration against Staphylococcus aureus (GC 4542) was determined; type: functional
Enterococcus faecium [32] = experiment: Minimum inhibitory concentration against Enterococcus faecium (GC 2243) was determined; type: functional
Enterococcus faecalis [33] = experiment: Minimum inhibitory concentration against Enterococcus faecalis (GC 2242) was determined; type: functional
Streptococcus pneumoniae [34] = experiment: Minimum inhibitory concentration against Streptococcus pneumoniae (GC 6242) was determined; type: functional

For `CC(C)CC(=O)O[C@@H]1[C@H](O)[C@@H](O[C@H]2[C@H](O)[C@H](O)[C@@H](Oc3ccc(C[C@H]4NC(=O)[C@H]([C@@H](C)c5ccccc5)NC(=O)CNC(=O)[C@H](CO)NC(=O)[C@@H]([C@@H](O)[C@@H]5CN=C(N)N5[C@H]5O[C@H](O)[C@@H](O)[C@H](O)[C@@H]5O)NC(=O)[C@H]([C@@H](O)[C@@H]5CN=C(N)N5)NC4=O)cc3)O[C@@H]2CO)O[C@H](CO)[C@H]1O`, the MIC (Staphylococcus aureus [1]) was 8 µg/mL (≈ 5.86 µM), the MIC (Streptococcus) was 8 µg/mL (≈ 5.86 µM) and the MIC (Enterococcus sp.) was 64 µg/mL (≈ 46.9 µM).

`COc1ccc2cc(COC[C@H]3O[C@H](O[C@H]4[C@H](O)[C@H](O)[C@@H](Oc5ccc(C[C@H]6NC(=O)[C@H]([C@@H](C)c7ccccc7)NC(=O)CNC(=O)[C@H](CO)NC(=O)[C@@H]([C@@H](O)[C@@H]7CN=C(N)N7[C@H]7O[C@H](O)[C@@H](O)[C@H](O)[C@@H]7O)NC(=O)[C@H]([C@@H](O)[C@@H]7CN=C(N)N7)NC6=O)cc5)O[C@@H]4CO)[C@@H](O)[C@@H](O)[C@@H]3O)ccc2c1` showed an MIC [2] of 0.5 µg/mL (≈ 0.344 µM), an MIC [3] of 1 µg/mL (≈ 0.689 µM) and an MIC [4] of 2 µg/mL (≈ 1.38 µM). The MIC (Bacillus cereus) was 64 µg/mL (≈ 44.1 µM), the MIC (Pseudomonas aeruginosa) was 0.12 µg/mL (≈ 0.0827 µM) and the MIC (Enterococcus faecalis [5]) was 4 µg/mL (≈ 2.76 µM). The MIC (Staphylococcus aureus [6]) was 0.12 µg/mL (≈ 0.0827 µM), the MIC (Streptococcus pyogenes) was 8 µg/mL (≈ 5.51 µM) and the MIC (Enterococcus faecalis [7]) was 4 µg/mL (≈ 2.76 µM). The MIC (Staphylococcus aureus [8]) was 1 µg/mL (≈ 0.689 µM), the MIC (Staphylococcus aureus [9]) was 1 µg/mL (≈ 0.689 µM) and the MIC (Escherichia coli [10]) was 1 µg/mL (≈ 0.689 µM). It also gave an MIC (Enterococcus faecalis [11]) of 8 µg/mL (≈ 5.51 µM), an MIC (Enterococcus faecium [12]) of 8 µg/mL (≈ 5.51 µM) and an MIC (Staphylococcus aureus [13]) of 1 µg/mL (≈ 0.689 µM). It also gave an MIC [14] of 0.5 µg/mL (≈ 0.344 µM), an MIC [15] of 1 µg/mL (≈ 0.689 µM) and an MIC (Candida albicans) greater than 64 µg/mL. For the same molecule, the MIC (Enterococcus faecalis [16]) was 0.25 µg/mL (≈ 0.172 µM), the MIC (Streptococcus pneumoniae [17]) was 0.5 µg/mL (≈ 0.344 µM) and the MIC (Enterococcus faecalis [18]) was 8 µg/mL (≈ 5.51 µM). It also gave an MIC [19] of 1 µg/mL (≈ 0.689 µM), an MIC (Streptococcus agalactiae) of 0.25 µg/mL (≈ 0.172 µM) and an MIC (Staphylococcus aureus [20]) of 2 µg/mL (≈ 1.38 µM). It also gave an MIC (Escherichia coli [21]) greater than 64 µg/mL, an MIC (Staphylococcus aureus [22]) of 1 µg/mL (≈ 0.689 µM) and an MIC (Micrococcus luteus) of 2 µg/mL (≈ 1.38 µM). The MIC (Enterococcus faecalis [23]) was 8 µg/mL (≈ 5.51 µM), the ED50 (Mus musculus) was 0.12 mg/kg and the MIC (Morganella morganii) was greater than 64 µg/mL. For the same molecule, the MIC (Escherichia coli [24]) was greater than 64 µg/mL, the MIC (Staphylococcus aureus [25]) was 2 µg/mL (≈ 1.38 µM) and the MIC (Enterococcus faecium [26]) was 8 µg/mL (≈ 5.51 µM). For the same molecule, the MIC (Enterococcus avium) was 2 µg/mL (≈ 1.38 µM), the MIC (Staphylococcus aureus [27]) was 2 µg/mL (≈ 1.38 µM) and the MIC (Streptococcus pneumoniae [28]) was 8 µg/mL (≈ 5.51 µM). The MIC (Enterococcus faecalis [29]) was 8 µg/mL (≈ 5.51 µM), the MIC (Staphylococcus aureus [30]) was 2 µg/mL (≈ 1.38 µM) and the MIC (Staphylococcus aureus [31]) was 2 µg/mL (≈ 1.38 µM). It also gave an MIC (Enterococcus faecium [32]) of 8 µg/mL (≈ 5.51 µM), an MIC (Enterococcus faecalis [33]) of 8 µg/mL (≈ 5.51 µM) and an MIC (Streptococcus pneumoniae [34]) of no more than 0.06 µg/mL.

For `C[C@@H](c1ccccc1)[C@@H]1NC(=O)CNC(=O)[C@H](CO)NC(=O)[C@@H]([C@@H](O)[C@@H]2CN=C(N)N2[C@H]2O[C@H](O)[C@@H](O)[C@H](O)[C@@H]2O)NC(=O)[C@H]([C@@H](O)[C@@H]2CN=C(N)N2)NC(=O)[C@@H](Cc2ccc(O[C@H]3O[C@H](CO)[C@@H](O[C@H]4O[C@H](CO)[C@@H](O)[C@H](O)[C@@H]4O)[C@H](O)[C@@H]3O)cc2)NC1=O`, the MIC (Staphylococcus aureus [1]) was greater than 128 µg/mL, the MIC (Streptococcus) was 32 µg/mL (≈ 25 µM) and the MIC (Enterococcus sp.) was 128 µg/mL (≈ 99.9 µM).

In the case of `COc1ccc2cc(CO[C@@H]3[C@@H](O[C@H]4[C@H](O)[C@H](O)[C@@H](Oc5ccc(C[C@H]6NC(=O)[C@H]([C@@H](C)c7ccccc7)NC(=O)CNC(=O)[C@H](CO)NC(=O)[C@@H]([C@@H](O)[C@@H]7CN=C(N)N7[C@H]7O[C@H](O)[C@@H](O)[C@H](O)[C@@H]7O)NC(=O)[C@H]([C@@H](O)[C@@H]7CN=C(N)N7)NC6=O)cc5)O[C@@H]4CO)O[C@H](CO)[C@@H](O)[C@@H]3O)ccc2c1`, the MIC [2] is reported as 64 µg/mL (≈ 44.1 µM), the MIC [3] is reported as 64 µg/mL (≈ 44.1 µM) and the MIC [4] is reported as 64 µg/mL (≈ 44.1 µM). The MIC (Bacillus cereus) was 128 µg/mL (≈ 88.2 µM), the MIC (Pseudomonas aeruginosa) was greater than 128 µg/mL and the MIC (Enterococcus faecalis [5]) was greater than 128 µg/mL. For the same molecule, the MIC (Staphylococcus aureus [6]) was 128 µg/mL (≈ 88.2 µM), the MIC (Streptococcus pyogenes) was 64 µg/mL (≈ 44.1 µM) and the MIC (Enterococcus faecalis [7]) was greater than 128 µg/mL. For the same molecule, the MIC (Staphylococcus aureus [8]) was 128 µg/mL (≈ 88.2 µM), the MIC (Staphylococcus aureus [9]) was 64 µg/mL (≈ 44.1 µM) and the MIC (Escherichia coli [10]) was greater than 128 µg/mL. The MIC (Enterococcus faecalis [11]) was 128 µg/mL (≈ 88.2 µM), the MIC (Enterococcus faecium [12]) was greater than 128 µg/mL and the MIC (Staphylococcus aureus [13]) was 64 µg/mL (≈ 44.1 µM). It also gave an MIC [14] of 32 µg/mL (≈ 22 µM), an MIC [15] of 64 µg/mL (≈ 44.1 µM) and an MIC (Candida albicans) greater than 64 µg/mL. For the same molecule, the MIC (Enterococcus faecalis [16]) was greater than 128 µg/mL, the MIC (Streptococcus pneumoniae [17]) was 32 µg/mL (≈ 22 µM) and the MIC (Enterococcus faecalis [18]) was greater than 128 µg/mL. For the same molecule, the MIC [19] was 64 µg/mL (≈ 44.1 µM), the MIC (Streptococcus agalactiae) was 32 µg/mL (≈ 22 µM) and the MIC (Staphylococcus aureus [20]) was 128 µg/mL (≈ 88.2 µM). The MIC (Escherichia coli [21]) was greater than 128 µg/mL, the MIC (Micrococcus luteus) was 16 µg/mL (≈ 11 µM) and the MIC (Enterococcus faecalis [23]) was greater than 128 µg/mL. It also gave an MIC (Morganella morganii) greater than 128 µg/mL, an MIC (Escherichia coli [24]) of 32 µg/mL (≈ 22 µM) and an MIC (Staphylococcus aureus [25]) of 128 µg/mL (≈ 88.2 µM). For the same molecule, the MIC (Enterococcus faecium [26]) was 32 µg/mL (≈ 22 µM), the MIC (Enterococcus avium) was 128 µg/mL (≈ 88.2 µM) and the MIC (Staphylococcus aureus [27]) was 128 µg/mL (≈ 88.2 µM). For the same molecule, the MIC (Streptococcus pneumoniae [28]) was 16 µg/mL (≈ 11 µM), the MIC (Enterococcus faecalis [29]) was greater than 128 µg/mL and the MIC (Staphylococcus aureus [30]) was 128 µg/mL (≈ 88.2 µM). The MIC (Staphylococcus aureus [31]) was greater than 128 µg/mL, the MIC (Enterococcus faecium [32]) was 128 µg/mL (≈ 88.2 µM) and the MIC (Enterococcus faecalis [33]) was greater than 128 µg/mL. For the same molecule, the MIC (Streptococcus pneumoniae [34]) was 32 µg/mL (≈ 22 µM).
